Results on one substance are retold here after patent US9803021B2 (The Regents of the University of California, priority 2012, dated 2017).

Entries after “also recorded” stand apart in the source; their conditions may differ.

What all share (type): cell-based, human
One experiment concerns 8226/S. The experiment is described as follows: MTS assay (cell viability / metabolic activity). The note with it: 8226/S (RPMI 8226), 3 days or 4 days. As to the method: (§1) Percent cell viability was determined using MTS solution (Promega, Madison, Wis.) by measuring absorbance at 490 nm using a Synergy HT Multi-Detection Microplate Reader (BioTek Instruments, Inc., Winooski, Vt.) with untreated cells being 100%. GraphPad Prism (GraphPad Software Inc., La Jolla, Calif.) was used to analyze data by non-linear regression with the log (inhibitor) vs. the response with a variable slope with the IC50 calculated. Data are expressed as a percentage of maximum metabolic activity. The experiments were performed in triplicate.
(§2) Metabolic activity was determined using MTS solution (Promega) by measuring absorbance at 490 nm using a Synergy HT Multi-Detection Microplate Reader (BioTek Instruments Inc.) with untreated cells being 100%. GraphPad Prism (GraphPad Software Inc.) was used to analyze data by non-linear regression with the log (inhibitor) versus the response with a variable slope. Data are expressed as a percentage of maximum metabolic activity. The experiments were performed in triplicate.

For experiment [1], the system named is ANBL-6. The experiment is described as follows: MTS assay (cell viability / metabolic activity). Particulars: ANBL-6, 3 days or 7 days. The protocol:
as §1, §2

In experiment [2] the test system is MM1-144. In words: MTS assay (cell viability / metabolic activity). Particulars: MM144 (MM1-144), 3 days. As to the method:
as §1, §2

Experiment [3] deals with U266. In words: MTS assay (cell viability / metabolic activity). The note with it: U266, 3 days. The protocol: as §1, §2
The next experiment has as its system OPM-1. In words: MTS assay (cell viability / metabolic activity). The protocol:
as §1
(§3) To determine if the HMCLs were sensitive to treatment with IFNα fusion protein, HMCLs were incubated with varying concentrations of anti-CD138-IFNα, and cell viability was assessed. Anti-CD138-IFNα was used to target IFNα to the MM cell lines while anti-CD20-IFNα was used as an untargeted control. After 3 days of treatment, cell viability was measured by MTS activity. The MM cell lines differed in their response to treatment with the fusion proteins.

Another experiment relates to S6B45. The experiment is described as follows: MTS assay (cell viability / metabolic activity). Particulars: S6B45, 3 days. As to the method: as §1, §3
The subject of another experiment is XG-1. In words: MTS assay (cell viability / metabolic activity). Particulars: XG-1, 3 days. The protocol: as §1, §3
In experiment [4] the test system is ANBL-6. The experiment is described as follows: Senescence induced β-gal activity at pH 6 (C12FDG, flow cytometry). The note with it: ANBL-6, 1 nM, 3 days (data not shown). The protocol:
(§4) Senescence induced β-galactosidase (β-gal) activity was detected as described previously (Debacq-Chainiaux et al. (2009) Nature Protocols, 4: 1798-1806). […] To induce lysosomal alkalinization, cells were incubated in 100 nM bafilomycin A1 (Sigma) for 1 h. Then cells were incubated for 30 min with the β-gal substrate dodecanoylaminofluorescein di-β-D-galactopyranoside (C12FDG; Invitrogen), which becomes fluorescent after cleavage by β-gal. After washing twice with cold PBS, cells were resuspended in cold PBS containing 1 mM phenylethyl thiogalactoside (PETG), a β-gal inhibitor, and analyzed by flow cytometry for C12-fluorescein.
(§5) Intracellular β-galactosidase (β-gal) activity was measured as an indicator for replicative senescence. […] After treatment, cells were incubated with 100 nM bafilomycin A1 (Sigma) for 1 hour to induce lysosomal alkalinization. Then cells were incubated for 30 minutes with the 33 μM of β-gal substrate dodecanoylaminofluorescein di-β-D-galactopyranoside (C12FDG; Invitrogen), which becomes fluorescent after cleavage to C12-fluorescein. After washing twice with cold PBS, cells were resuspended in cold PBS containing 1 mM phenylethyl thiogalactoside (PETG), a β-gal inhibitor, and analyzed by flow cytometry for C12-fluorescein.

Experiment [5] relates to MM1-144. Described as above. Particulars: MM1-144, 1 nM, 3 days. The protocol:
as §4, §5

A further experiment has as its system NCI-H929. The description is as above. The note with it: 1 nM, 3 days, listed as anti-CD138-IFNα2. The protocol: as §4, §5
The next experiment relates to OCI-My5. Described as above. As to the method:
as §4, §5

The subject of experiment [6] is U266. Described as above. The note with it: U266, 1 nM, 3 days. As to the method:
as §4, §5

The test system of another experiment is ppRb in MM1-144. In words: Western blot of ppRb. Particulars: MM1-144, 1 nM, 48 hours. As to the method: (§6) Cells were lysed using RIPA buffer (50 mM Tris HCl pH 8, 150 mM NaCl, 1% NP-40, 0.5% sodium deoxycholate, 0.1% SDS) containing a protease inhibitor cocktail (Roche Applied Science, Indianapolis, Ind.). The cytosolic fractions were reduced with β-mercaptoethanol and separated by SDS-PAGE. Following transfer to nitrocellulose membrane (Whatman, Piscataway, N.J.) and blocking, samples were incubated with the following primary rabbit antibodies: anti-IRF4 (Epitomics, Berlingham, Calif.), anti-glyceraldehyde-3-phosphate dehydrogenase (GAPDH; Sigma), anti-ppRb Ser807/811 (Santa Cruz Biotechnology, Santa Cruz, Calif.), anti-cyclin D (Millipore, Billerica, Mass.), or anti-β tubulin (Abcam, Cambridge, Mass.). Secondary anti-rabbit IgG-HRP (GE Healthcare, Billerica, Mass.) was used and the blots were developed using enhanced chemiluminescence (ECL; Thermo Scientific, Waltham, Mass.).
(§7) Cells were lysed using RIPA buffer (50 mM Tris-HCl pH 8, 150 mM NaCl, 1% NP-40, 0.5% sodium deoxycholate, 0.1% SDS) containing a protease inhibitor cocktail (Roche Applied Science). The cytosolic fractions were reduced with β-mercaptoethanol and separated by SDS PAGE. Following transfer to nitrocellulose membrane (Whatman) and blocking, samples were incubated with the following primary rabbit antibodies: anti-IRF-4 (Epitomics), anti-glyceraldehyde-3-phosphate dehydrogenase (GAPDH; Sigma), or anti-ppRb Ser807/811 (Santa Cruz Biotechnology). Secondary anti-rabbit IgG-HRP (GE Healthcare) was used and the blots were developed using enhanced chemiluminescence (ECL; Thermo Scientific). Films were imaged using a Multilmage™ Light Cabinet (Alpha Innotech Corp.) and analyzed using NIH Image J. Bands were normalized to a GAPDH loading control and expressed as percentage band intensity of untreated cells.

The subject of the next experiment is ppRb in NCI-H929. In words: Western blot of ppRb. Particulars: NCI-H929, 1 nM, 48 hours. The protocol: as §6, §7
In a further experiment the test system is ppRb in OCI-My5. The experiment is described as follows: Western blot of ppRb. Particulars: OCI-My5, 1 nM, 48 hours. The protocol:
as §6, §7

Turning to “anti-CD138-IFNα: Fusion protein: murine B-B4 anti-CD138 variable regions, human IgG1κ constant regions, human IFNα2 fused to the antibody C-terminus via SGGGGS linker”, the “cell viability / growth inhibition (MTS assay), result in words” value is on record as “intermediate effect; also recorded: more effective at decreasing cell viability than IFNα alone” in the experiment on 8226/S; “some effect was observed only at high concentrations” with 8226/S (listed as Anti-CD138-IFNα2); “more effective than untargeted anti-CD20-IFNα; also recorded: more effective at decreasing cell viability than IFNα alone” in the experiment on ANBL-6 [1]; “more effective than anti-CD138-mutIFNα” with ANBL-6 [1] (listed as Anti-CD138-IFNα); “more effective than recombinant IFNα2” in the experiment on ANBL-6 [1] (listed as Anti-CD138-IFNα2); “more effective than untargeted anti-CD20-IFNα; also recorded: more effective at decreasing cell viability than IFNα alone” in the experiment on MM1-144 [2]. In addition, the “cell viability / growth inhibition (MTS assay), result in words” value with MM1-144 [2] (listed as Anti-CD138-IFNα2) was “more effective than recombinant IFNα2”; with U266 [3], “more effective than untargeted anti-CD20-IFNα; also recorded: more effective at decreasing cell viability than IFNα alone”. Further, the “cell viability (MTS assay), result in words” value with OPM-1 (OPM-1, 3 days) is “little or no effect”; with OPM-1 (OPM-1, treatment increased to 4 days (data not shown)), “decrease in viability”; in the experiment on S6B45, “intermediate effect”; in the experiment on S6B45 (listed as Anti-CD138-IFNα2) it was “some effect was observed only at high concentrations”; in the experiment on XG-1 it was “little or no effect”. Moreover, the “β-gal activity at pH 6 (senescence), result in words” value in the experiment with ANBL-6 [4] is “no increases”; with MM1-144 [5], “increases in β-gal activity”; in the experiment on NCI-H929 it was “increases in β-gal activity; also recorded: greater effect than with IFNα2 alone”; in the experiment with OCI-My5 (OCI-My5, 1 nM, 3 days (also 4, 6, 7 days)), “little or no increase in β-gal activity”; with U266 [6] it was “no increase under any conditions”. In the experiment with OCI-My5 (OCI-My 5, footnote †), the “Mode of Action of anti-CD138-IFNα fusion” value is recorded as “senescence†”. Further, the “ppRb levels (Western blot)” value with ppRb in MM1-144, with ppRb in NCI-H929 and in the experiment on ppRb in OCI-My5 was “decreased” throughout.
